Assay results as given in the supplement of paper PMC10883282.

How the values were obtained:
Test in all cases: relative viability vs DMSO control (72 h) (fraction); higher = more viable cells
A204 = test system: A204
Method in brief: (§1)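 ATPLite readings, expressed as percent growth and averaged over up to triplicate wells, provided relative viability. Before reading, sarcoma cell lines seeded in 384-well plates to reach 80–90% confluence received 2.5 µl of serially diluted compound after 24 h, from source plates of 10 mM to 0.0002 mM. Plates were held 72 h at 37 °C, 5% CO2, with 0.1% DMSO as vehicle and a 5 µM positive control. The data were rescaled to 1 for full and 0 for none.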

G401 = test system: G401
Method in brief: as §1

HS729 = test system: HS729
Method in brief: as §1

HT1080 = test system: HT1080
Method in brief: as §1

KHOS-NP = test system: KHOS-NP
Method in brief: as §1

MES-SA = test system: MES-SA
Method in brief: as §1

SK-LMS-1 = test system: SK-LMS-1
Method in brief: as §1

SW1353 = test system: SW1353
Method in brief: as §1

SW684 = test system: SW684
Method in brief: as §1

SW872 = test system: SW872
Method in brief: as §1

SYO-1 = test system: SYO-1
Method in brief: as §1

VA-ES-BJ = test system: VA-ES-BJ
Method in brief: as §1

N#CCNC(=O)c1ccc(-c2ccnc(Nc3ccc(N4CCOCC4)cc3)n2)cc1 [Momelotinib]
Details	relative viability
A204, 0.00017 µM	1.03
A204, 0.00051 µM	1.07
A204, 0.00152 µM	1.05
A204, 0.00457 µM	1.05
A204, 0.01372 µM	1.04
A204, 0.04115 µM	1.06
A204, 0.1235 µM	0.993
A204, 0.3704 µM	0.774
A204, 1.111 µM	0.646
A204, 3.333 µM	0.498
A204, 10 µM	0.284
G401, 0.00017 µM	1.01
G401, 0.00051 µM	1.011
G401, 0.00152 µM	1.05
G401, 0.00457 µM	1.06
G401, 0.01372 µM	1.01
G401, 0.04115 µM	0.964
G401, 0.1235 µM	0.975
G401, 0.3704 µM	0.898
G401, 1.111 µM	0.779
G401, 3.333 µM	0.683
G401, 10 µM	0.54
HS729, 0.00017 µM	1.07
HS729, 0.00051 µM	1.04
HS729, 0.00152 µM	1.05
HS729, 0.00457 µM	1.06
HS729, 0.01372 µM	1.01
HS729, 0.04115 µM	1.01
HS729, 0.1235 µM	0.995
HS729, 0.3704 µM	0.939
HS729, 1.111 µM	0.859
HS729, 3.333 µM	0.777
HS729, 10 µM	0.741
HT1080, 0.00017 µM	1.03
HT1080, 0.00051 µM	1.1
HT1080, 0.00152 µM	1.069
HT1080, 0.00457 µM	1.06
HT1080, 0.01372 µM	1.08
HT1080, 0.04115 µM	1.09
HT1080, 0.1235 µM	1.12
HT1080, 0.3704 µM	1.17
HT1080, 1.111 µM	1.18
HT1080, 3.333 µM	1.25
HT1080, 10 µM	1.21
KHOS-NP, 0.00017 µM	1.09
KHOS-NP, 0.00051 µM	1.099
KHOS-NP, 0.00152 µM	1.101
KHOS-NP, 0.00457 µM	1.09
KHOS-NP, 0.01372 µM	1.115
KHOS-NP, 0.04115 µM	1.11
KHOS-NP, 0.1235 µM	1.101
KHOS-NP, 0.3704 µM	1.08
KHOS-NP, 1.111 µM	1.01
KHOS-NP, 3.333 µM	1.05
KHOS-NP, 10 µM	0.983
MES-SA, 0.00017 µM	0.942
MES-SA, 0.00051 µM	0.971
MES-SA, 0.00152 µM	0.9306
MES-SA, 0.00457 µM	0.952
MES-SA, 0.01372 µM	0.934
MES-SA, 0.04115 µM	0.881
MES-SA, 0.1235 µM	0.84
MES-SA, 0.3704 µM	0.786
MES-SA, 1.111 µM	0.685
MES-SA, 3.333 µM	0.616
MES-SA, 10 µM	0.378
SK-LMS-1, 0.00017 µM	1.13
SK-LMS-1, 0.00051 µM	1.13
SK-LMS-1, 0.00152 µM	1.11
SK-LMS-1, 0.00457 µM	1.1
SK-LMS-1, 0.01372 µM	1.13
SK-LMS-1, 0.04115 µM	1.06
SK-LMS-1, 0.1235 µM	1.08
SK-LMS-1, 0.3704 µM	1.05
SK-LMS-1, 1.111 µM	0.946
SK-LMS-1, 3.333 µM	0.924
SK-LMS-1, 10 µM	0.886
SW684, 0.00017 µM	1.12
SW684, 0.00051 µM	1.15
SW684, 0.00152 µM	1.09
SW684, 0.00457 µM	1.13
SW684, 0.01372 µM	1.12
SW684, 0.04115 µM	1.13
SW684, 0.1235 µM	1.1
SW684, 0.3704 µM	1.02
SW684, 1.111 µM	0.795
SW684, 3.333 µM	0.82
SW684, 10 µM	0.646
SW872, 0.00017 µM	1.07
SW872, 0.00051 µM	1.06
SW872, 0.00152 µM	1.07
SW872, 0.00457 µM	1.025
SW872, 0.01372 µM	1.03
SW872, 0.04115 µM	1.06
SW872, 0.1235 µM	0.973
SW872, 0.3704 µM	0.972
SW872, 1.111 µM	0.765
SW872, 3.333 µM	0.733
SW872, 10 µM	0.654
SW1353, 0.00017 µM	1.1
SW1353, 0.00051 µM	1.05
SW1353, 0.00152 µM	1.07
SW1353, 0.00457 µM	1.07
SW1353, 0.01372 µM	1.06
SW1353, 0.04115 µM	1.04
SW1353, 0.1235 µM	1.03
SW1353, 0.3704 µM	0.963
SW1353, 1.111 µM	0.7816
SW1353, 3.333 µM	0.739
SW1353, 10 µM	0.511
SYO-1, 0.00017 µM	1.02
SYO-1, 0.00051 µM	1.02
SYO-1, 0.00152 µM	1.01
SYO-1, 0.00457 µM	1.02
SYO-1, 0.01372 µM	0.985
SYO-1, 0.04115 µM	1.01
SYO-1, 0.1235 µM	0.933
SYO-1, 0.3704 µM	0.809
SYO-1, 1.111 µM	0.643
SYO-1, 3.333 µM	0.503
SYO-1, 10 µM	0.289
VA-ES-BJ, 0.00017 µM	1.07
VA-ES-BJ, 0.00051 µM	1.07
VA-ES-BJ, 0.00152 µM	1.08
VA-ES-BJ, 0.00457 µM	1.066
VA-ES-BJ, 0.01372 µM	1.09
VA-ES-BJ, 0.04115 µM	1.07
VA-ES-BJ, 0.1235 µM	1.04
VA-ES-BJ, 0.3704 µM	1.03
VA-ES-BJ, 1.111 µM	0.97
VA-ES-BJ, 3.333 µM	0.987
VA-ES-BJ, 10 µM	0.891
